Read-outs that look alike come from different tables or passages of the source.
Tests used:
Assay type in all cases: cell-based
[1] = test system: A549 (lung adenocarcinoma); assay: WST-1 cell viability, lung cancer cell line A549; conditions: Homo sapiens
Procedure: (§1) The cell numbers were counted and reseed as 2×10^6 in culture plate/flask. Then, the culture medium were added to a volume of 10 ml, and the cells were cultured for 2-3 days. Then, the cells were suspended for loading into 96-well plates. The number of cells was 3000 and the volume of the culture medium was 100 μl each well.
(§2) Removing the original culture medium from 96-well plate. Then add 100 μl of commercially drug at a concentration of 10 μM per well. After 72 hours, add the diluted WST-1 reagent to the well with 100 μl/well, and the diluted WST-1 reagent was acquired from the dilution of 9:1 medium and WST-1 stock reagent. Finally, the total volume of each well was 200 μl/well. Culture the 96-well plate at 37° C. for 30 to 90 minutes. Detecting and calculate the survival rate of each cancer cells with an ELISA reader at OD450 nm.

[2] = test system: H1650 (lung adenocarcinoma); assay: WST-1 cell viability, lung cancer cell line H1650; conditions: Homo sapiens
Procedure: as §1, §2

TSGH = assay: WST-1 cell viability, bladder cancer cell line TSGH; conditions: 72 h
Procedure: as §1, §2

T24 = assay: WST-1 cell viability, bladder cancer cell line T24; conditions: Homo sapiens
Procedure: as §1
as §2, with “Culture the 96-well plate at 37° C. for 30 to 90 minutes.” left out

PC-3 = assay: WST-1 cell viability, prostate cancer cell line PC-3; conditions: Homo sapiens
Procedure: as §1, §2

[3] = test system: MCF7 (Mammary Gland, Adenocarcinoma); assay: WST-1 cell viability, breast cancer cell line MCF7; conditions: Homo sapiens
Procedure: as §1, §2

NIH-OVCAR-3 = assay: WST-1 cell viability, ovarian cancer cell line NIH-OVCAR-3; conditions: Homo sapiens
Procedure: as §1, §2

TOV-21G = assay: WST-1 cell viability, ovarian cancer cell line TOV-21G; conditions: Homo sapiens, TOV21G, 72 h
Procedure: as §1, §2

[4] = test system: SAS (Tongue squamouscell carcinoma); assay: WST-1 cell viability, tongue cancer cell line SAS; conditions: 72 h
Procedure: as §1, §2

[5] = test system: A375 (amelanotic melanoma); assay: WST-1 cell viability, skin cancer cell line A375; conditions: Homo sapiens
Procedure: as §1, §2

[6] = WST-1 cell viability, normal kidney cell line HEK293; conditions: human, HEK293 normal kidney cells
Procedure: as §1, §2

ovarian cancer cells = assay: Summary of cell viability, ovarian cancer; conditions: 72 h, read-out: Inhibitory effect
Procedure: as §2

gastric cancer cells = assay: Summary of cell viability, gastric cancer; conditions: gastriccancer, 72 h, read-out: Inhibitory effect
Procedure: as §2

skin cancer cells = assay: Summary of cell viability, skin cancer; conditions: 72 h, read-out: Inhibitory effect
Procedure: as §2

[7] = average of 4 tests, read-out: survival rate (inhibition effect), Average

## Fc1ccc([C@@H]2CCNC[C@H]2COc2ccc3c(c2)OCO3)cc1 [Paroxetine]
[1]; A549, 72 h, A549, average of 4 tests, read-out: survival rate (inhibition effect), Average
  viability at 10 µM: 92.4%
[1]; A549, A549, 72 h, run 0524-10 min, read-out: survival rate (inhibition effect)
  viability at 10 µM: 84.2%
[1]; A549, A549, 72 h, run 0526-10 min, read-out: survival rate (inhibition effect)
  viability at 10 µM: 127%
[1]; A549, A549, 72 h, run 0529-10 min, read-out: survival rate (inhibition effect)
  viability at 10 µM: 54%
[1]; A549, A549, 72 h, run 0531-10 min, read-out: survival rate (inhibition effect)
  viability at 10 µM: 104%
[2]; NCI-H1650, 72 h, H1650, average of 4 tests, read-out: survival rate (inhibition effect), Average
  viability at 10 µM: 56.9%
[2]; NCI-H1650, H1650, 72 h, run 1-10 min, read-out: survival rate (inhibition effect)
  viability at 10 µM: 66.4%
[2]; NCI-H1650, H1650, 72 h, run 2-20 min, read-out: survival rate (inhibition effect)
  viability at 10 µM: 31.6%
[2]; NCI-H1650, H1650, 72 h, run 3-20 min, read-out: survival rate (inhibition effect)
  viability at 10 µM: 58.2%
[2]; NCI-H1650, H1650, 72 h, run 4-20 min, read-out: survival rate (inhibition effect)
  viability at 10 µM: 71.3%
TSGH; [7]
  viability at 10 µM: 38.4%
TSGH; run 0510-10 min, read-out: survival rate (inhibition effect)
  viability at 10 µM: 37.1%
TSGH; run 0512-10 min, read-out: survival rate (inhibition effect)
  viability at 10 µM: 37.4%
TSGH; run 0515-10 min, read-out: survival rate (inhibition effect)
  viability at 10 µM: 36.8%
TSGH; run 0517-10 min, read-out: survival rate (inhibition effect)
  viability at 10 µM: 42.2%
T24; T-24, 72 h, T24, average of 4 tests, read-out: survival rate (inhibition effect), Average
  viability at 10 µM: 99.9%
T24; T-24, T24, 72 h, run 1-30 min, read-out: survival rate (inhibition effect)
  viability at 10 µM: 112%
T24; T-24, T24, 72 h, run 2-20 min, read-out: survival rate (inhibition effect)
  viability at 10 µM: 85.2%
T24; T-24, T24, 72 h, run 3-20 min, read-out: survival rate (inhibition effect)
  viability at 10 µM: 102%
T24; T-24, T24, 72 h, run 4-20 min, read-out: survival rate (inhibition effect)
  viability at 10 µM: 102%
PC-3; PC-3, 72 h, PC-3, average of 4 tests, read-out: survival rate (inhibition effect), Average
  viability at 10 µM: 44.1%
PC-3; PC-3, PC-3, 72 h, run PC-3-0524-10 min, read-out: survival rate (inhibition effect)
  viability at 10 µM: 33.5%
PC-3; PC-3, PC-3, 72 h, run PC-3-0526-10 min, read-out: survival rate (inhibition effect)
  viability at 10 µM: 61.6%
PC-3; PC-3, PC-3, 72 h, run PC-3-0529-10 min, read-out: survival rate (inhibition effect)
  viability at 10 µM: 39.3%
PC-3; PC-3, PC-3, 72 h, run PC-3-0531-10 min, read-out: survival rate (inhibition effect)
  viability at 10 µM: 41.8%
[3]; MCF7, 72 h, MCF7, average of 4 tests, read-out: survival rate (inhibition effect), Average
  viability at 10 µM: 51.2%
[3]; MCF7, MCF7, 72 h, run 0612-10 min, read-out: survival rate (inhibition effect)
  viability at 10 µM: 47.7%
[3]; MCF7, MCF7, 72 h, run 0614-10 min, read-out: survival rate (inhibition effect)
  viability at 10 µM: 50%
[3]; MCF7, MCF7, 72 h, run 0616-10 min, read-out: survival rate (inhibition effect)
  viability at 10 µM: 55.4%
[3]; MCF7, MCF7, 72 h, run 0619-10 min, read-out: survival rate (inhibition effect)
  viability at 10 µM: 51.6%
NIH-OVCAR-3; OVCAR-3, 72 h, NIH-OVCAR-3, average of 4 tests, read-out: survival rate (inhibition effect), Average
  viability at 10 µM: 86%
NIH-OVCAR-3; OVCAR-3, NIH-OVCAR-3, 72 h, run 7-3-30 min, read-out: survival rate (inhibition effect)
  viability at 10 µM: 80.2%
NIH-OVCAR-3; OVCAR-3, NIH-OVCAR-3, 72 h, run 7-4-30 min (fourth column), read-out: survival rate (inhibition effect)
  viability at 10 µM: 97.8%
NIH-OVCAR-3; OVCAR-3, NIH-OVCAR-3, 72 h, run 7-4-30 min (second column), read-out: survival rate (inhibition effect)
  viability at 10 µM: 81.9%
NIH-OVCAR-3; OVCAR-3, NIH-OVCAR-3, 72 h, run 7-7-30 min, read-out: survival rate (inhibition effect)
  viability at 10 µM: 83.9%
TOV-21G; [7]
  viability at 10 µM: 87.1%
TOV-21G; run 4-30 min, read-out: survival rate (inhibition effect)
  viability at 10 µM: 86.1%
TOV-21G; run 7-3-30 min, read-out: survival rate (inhibition effect)
  viability at 10 µM: 93.5%
TOV-21G; run 7-4-30 min, read-out: survival rate (inhibition effect)
  viability at 10 µM: 79.7%
TOV-21G; run 7-7-30 min, read-out: survival rate (inhibition effect)
  viability at 10 µM: 89.2%
[4]; SAS, average of 4 tests, read-out: survival rate (inhibition effect), Average
  viability at 10 µM: 51.5%
[4]; summary, tongue cancer, read-out: Inhibitory effect
  viability at 10 µM: 51.5%
[4]; SAS, run 6-26-10 min, read-out: survival rate (inhibition effect)
  viability at 10 µM: 48.2%
[4]; SAS, run 6-28-10 min, read-out: survival rate (inhibition effect)
  viability at 10 µM: 26.7%
[4]; SAS, run 6-30-10 min, read-out: survival rate (inhibition effect)
  viability at 10 µM: 58%
[4]; SAS, run 7-3-10 min, read-out: survival rate (inhibition effect)
  viability at 10 µM: 73.1%
[5]; A-375, 72 h, A375, average of 4 tests, read-out: survival rate (inhibition effect), Average
  viability at 10 µM: 43.8%
[5]; A-375, A375, 72 h, run 0602-30 min, read-out: survival rate (inhibition effect)
  viability at 10 µM: 46.8%
[5]; A-375, A375, 72 h, run 0605-10 min, read-out: survival rate (inhibition effect)
  viability at 10 µM: 44.4%
[5]; A-375, A375, 72 h, run 0607-10 min, read-out: survival rate (inhibition effect)
  viability at 10 µM: 35.4%
[5]; A-375, A375, 72 h, run 0609-10 min, read-out: survival rate (inhibition effect)
  viability at 10 µM: 48.8%
[6]; HEK293, average of 4 tests, read-out: survival rate (inhibition effect), Average
  viability at 72 h, 10 µM: 71.4%
[6]; HEK293, run 0602-30 min, read-out: survival rate (inhibition effect)
  viability at 72 h, 10 µM: 64.9%
[6]; HEK293, run 0605-30 min, read-out: survival rate (inhibition effect)
  viability at 72 h, 10 µM: 76.8%
[6]; HEK293, run 0607-30 min, read-out: survival rate (inhibition effect)
  viability at 72 h, 10 µM: 76%
[6]; HEK293, run 0609-30 min, read-out: survival rate (inhibition effect)
  viability at 72 h, 10 µM: 67.8%
[6]; summary, kidney cell, read-out: Inhibitory effect
  viability at 72 h, 10 µM: 71.4%
Ovarian cancer cells
  viability at 10 µM: 86.5%
Gastric cancer cells
  viability at 10 µM: 26.3%
Skin cancer cells
  viability at 10 µM: 51%

Reference: US20170304286A1 (LAUNX BIOMEDICAL CO., LTD., priority 2014, published 2017)
